Source: PubChem BioAssay AID2060904 (Molecular Pharmacology Branch, DTP, NCI, 2025)
Each block holds one molecule with its values, some of them ahead of it.

Tested on: 349418-098-R-PDC complex spheroid viability
Assay: Anticancer human tumor 349418-098-R-PDC patient-derived lung adenocarcinoma cell line growth inhibition [RAS]
Settings: for IC50: curve of first compound; for viability, T/C: stronger effect = lower value
Procedure, shortened: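 Tumour cells grown as complex spheroids with HUVEC endothelial cells and mesenchymal stem cells, treated with RAS pathway inhibitor combinations. Each agent spans half-log steps from near clinical Cmax, or 10 microM where Cmax is unknown.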

[1] = second compound 0.00316 µM, first compound 0.00316 µM
[2] = second compound 0.00316 µM, first compound 0.01 µM
[3] = second compound 0.00316 µM, first compound 0.0316 µM
[4] = second compound 0.00316 µM, first compound 0.1 µM
[5] = second compound 0.00316 µM, first compound 0.316 µM
[6] = second compound 0.00316 µM, first compound 1 µM
[7] = second compound 0.01 µM, first compound 0.00316 µM
[8] = second compound 0.01 µM, first compound 0.01 µM
[9] = second compound 0.01 µM, first compound 0.0316 µM
[10] = second compound 0.01 µM, first compound 0.1 µM
[11] = second compound 0.01 µM, first compound 0.316 µM
[12] = second compound 0.01 µM, first compound 1 µM
[13] = second compound 0.0316 µM, first compound 0.00316 µM
[14] = second compound 0.0316 µM, first compound 0.01 µM
[15] = second compound 0.0316 µM, first compound 0.0316 µM
[16] = second compound 0.0316 µM, first compound 0.1 µM
[17] = second compound 0.0316 µM, first compound 0.316 µM
[18] = second compound 0.0316 µM, first compound 1 µM
[19] = second compound 0.1 µM, first compound 0.00316 µM
[20] = second compound 0.1 µM, first compound 0.01 µM
[21] = second compound 0.1 µM, first compound 0.0316 µM
[22] = second compound 0.1 µM, first compound 0.1 µM
[23] = second compound 0.1 µM, first compound 0.316 µM
[24] = second compound 0.1 µM, first compound 1 µM
[25] = second compound 0.316 µM, first compound 0.00316 µM
[26] = second compound 0.316 µM, first compound 0.01 µM
[27] = second compound 0.316 µM, first compound 0.0316 µM
[28] = second compound 0.316 µM, first compound 0.1 µM
[29] = second compound 0.316 µM, first compound 0.316 µM
[30] = second compound 0.316 µM, first compound 1 µM
[31] = second compound 1 µM, first compound 0.00316 µM
[32] = second compound 1 µM, first compound 0.01 µM
[33] = second compound 1 µM, first compound 0.0316 µM
[34] = second compound 1 µM, first compound 0.1 µM
[35] = second compound 1 µM, first compound 0.316 µM
[36] = second compound 1 µM, first compound 1 µM
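Also: spheroids exposed to compound for seven days before viability readout.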

- IC50 (second compound 0.00316 µM): > 1 µM
- IC50 (second compound 0.01 µM): > 1 µM
- IC50 (second compound 0.0316 µM): > 1 µM
- IC50 (second compound 0.1 µM): > 1 µM
- IC50 (second compound 0.316 µM): > 1 µM
- IC50 (second compound 1 µM): > 1 µM
SMILES: C=CC(=O)Nc1cc(Nc2nccc(-c3cn(C)c4ccccc34)n2)c(OC)cc1N(C)CCN(C)C + C=CC(=O)N1CCN(c2nc(OCC3CCCN3C)nc3c(F)c(-c4nc(N)cc(C)c4C(F)(F)F)c(Cl)cc23)C(C)C1
- viability, T/C [1]: 80.7%
- viability, T/C [2]: 119%
- viability, T/C [3]: 91.5%
- viability, T/C [4]: 69.9%
- viability, T/C [5]: 64.8%
- viability, T/C [6]: 72.9%
- viability, T/C [7]: 83.7%
- viability, T/C [8]: 97.5%
- viability, T/C [9]: 90.5%
- viability, T/C [10]: 71.8%
- viability, T/C [11]: 61.3%
- viability, T/C [12]: 56.6%
- viability, T/C [13]: 86.6%
- viability, T/C [14]: 129%
- viability, T/C [15]: 86.1%
- viability, T/C [16]: 96%
- viability, T/C [17]: 80.5%
- viability, T/C [18]: 52.8%
- viability, T/C [19]: 65.5%
- viability, T/C [20]: 123%
- viability, T/C [21]: 89.4%
- viability, T/C [22]: 75.4%
- viability, T/C [23]: 87.9%
- viability, T/C [24]: 69.2%
- viability, T/C [25]: 74.9%
- viability, T/C [26]: 99.9%
- viability, T/C [27]: 100%
- viability, T/C [28]: 117%
- viability, T/C [29]: 82.6%
- viability, T/C [30]: 67%
- viability, T/C [31]: 90.8%
- viability, T/C [32]: 96.9%
- viability, T/C [33]: 81.7%
- viability, T/C [34]: 88.4%
- viability, T/C [35]: 88.6%
- viability, T/C [36]: 65.6%

- IC50 (second compound 0.00316 µM): < 0.00316 µM
- IC50 (second compound 0.01 µM): < 0.00316 µM
- IC50 (second compound 0.0316 µM): < 0.00316 µM
- IC50 (second compound 0.1 µM): < 0.00316 µM
- IC50 (second compound 0.316 µM): < 0.00316 µM
- IC50 (second compound 1 µM): < 0.00316 µM
SMILES: O=C(c1ccc(F)c(F)c1Nc1ccc(I)cc1F)N1CC(O)([C@@H]2CCCCN2)C1 + C=CC(=O)N1CCN(c2nc(OCC3CCCN3C)nc3c(F)c(-c4nc(N)cc(C)c4C(F)(F)F)c(Cl)cc23)C(C)C1
- viability, T/C [1]: 39.9%
- viability, T/C [2]: 32.3%
- viability, T/C [3]: 28.5%
- viability, T/C [4]: 12.9%
- viability, T/C [5]: 5.88%
- viability, T/C [6]: 4.12%
- viability, T/C [7]: 37.7%
- viability, T/C [8]: 28.2%
- viability, T/C [9]: 24.3%
- viability, T/C [10]: 13.2%
- viability, T/C [11]: 7.23%
- viability, T/C [12]: 4.54%
- viability, T/C [13]: 39%
- viability, T/C [14]: 32.8%
- viability, T/C [15]: 28.5%
- viability, T/C [16]: 15.1%
- viability, T/C [17]: 6.99%
- viability, T/C [18]: 4.79%
- viability, T/C [19]: 36.4%
- viability, T/C [20]: 33.6%
- viability, T/C [21]: 26.6%
- viability, T/C [22]: 13.5%
- viability, T/C [23]: 6.66%
- viability, T/C [24]: 4.97%
- viability, T/C [25]: 29.1%
- viability, T/C [26]: 32.5%
- viability, T/C [27]: 32.4%
- viability, T/C [28]: 12%
- viability, T/C [29]: 7.61%
- viability, T/C [30]: 5.27%
- viability, T/C [31]: 42.3%
- viability, T/C [32]: 38.8%
- viability, T/C [33]: 26.8%
- viability, T/C [34]: 16.4%
- viability, T/C [35]: 7.89%
- viability, T/C [36]: 5%
